{"source": "patent US7390625B2", "about": "“Apoptosis-associated protein and use thereof” (Takeda Pharmaceutical Company Limited, priority 2002, dated 2008)", "tested_on": "PAE-ABP1 cells", "test": "Cell death assay in PAE-ABP1 cells after removal of tetracycline", "assay_type": "cell-based, porcine", "settings": "50 μM, 18 hours after tetracycline removal", "procedure": "FIGS. 7A-B show the induction of cell death by ABP1 in PAE-ABP1 cells. FIG. 7A: Phase contrast photomicrographs at 36 hours after cultivation of PAE-ABP1 cells in the presence (+) and absence (−) of tetracycline (Tet) are shown. FIG. 7B: The ratio (%) of cell death from cultivation in the presence of tetracycline (O hour) and at 24 hours and 48 hours after removal of tetracycline.\nFIGS. 9A-B show the caspase dependency of cell death by ABP1. FIG. 9A: PAE-ABP1 cells were cultivated in the absence of tetracycline, and caspase-3 activity was measured after 0, 12, 24, and 36 hours. The results are shown as relative values with the value in the presence of tetracycline taken as 1. FIG. 9B: PAE-ABP1 cells were treated with zVAD-fmk (50 μM) simultaneously with removal of tetracycline, and the ratio (%) of dead cells was quantified. Cell death assay was conducted at 18 hours after removal of tetracycline. […]\nWhen these cells were cultured in the absence of tetracycline, cell death was induced with the expression of the ABP1 protein, as in the transient expression of the ABP1 protein in HeLa cells (FIG. 7A). The ratio of dead cells to all cells (the ratio of cells showing a morphological sign of cell death to all cells was determined under a microscope; the results were shown as the mean for three visual fields) was determined to be about 55% at 48 hours after removal of tetracycline (FIG. 7B).", "note": "Peptide text beside a SMILES is read from it. * marks the point of attachment. Cbz = O=C(OCc1ccccc1)*; CH2F = FC*"}
{"compound": "COC(=O)C[C@H](NC(=O)[C@H](C)NC(=O)[C@@H](NC(=O)OCc1ccccc1)C(C)C)C(=O)CF", "note": "[zVAD-fmk, reference compound] (Cbz-Val-Ala-Asp(OMe)-CH2F)", "values": [{"measurement": "suppression of cell death caused by ABP1", "value": "almost completely suppressed"}]}
